According to PMC6967409 (Frontiers in Chemistry, 2020):
“And” between values parts separate entries of the source, which are not always exact repeats. Equal entries are not always repeated. Where two headings read alike, the source gives them in different places.

What was measured:
[1] = system: P. falciparum NF54 early stage gametocytes (>90% stage I–III); parameters: method as in Coertzen et al. (2018); settings: read-out: Early Stage (EG, Luc 48 h) IC50; >90% stage I–III gametocytes; ref Coertzen et al. (2018); cited from earlier work
[2] = system: P. falciparum W2; experiment: T0 [3H]-hypoxanthine drug susceptibility assay; type: cell-based; settings: Plasmodium falciparum; for IC50: W2, read-out: W2 IC50; for IC90: W2, read-out: W2 IC90
[3] = system: Chinese hamster ovarian (CHO) cells; settings: read-out: Cytotoxicity EC50 CHO; MTT assay; ref Coertzen et al. (2018); cited from earlier work
[4] = system: P. falciparum NF54; parameters: method as in Coertzen et al. (2018); settings: SYBR Green I; ref Coertzen et al. (2018); read-out: Proliferative IC50 NF54; cited from earlier work
[5] = system: P. falciparum ARC08-22 (4G); experiment: T0 [3H]-hypoxanthine drug susceptibility assay, artemisinin-resistant clone (C580Y); type: cell-based, Plasmodium falciparum; settings: preliminary, W2 as comparative sensitive strain
[6] = HepG2 cytotoxicity bioluminescence assay (CellTiterGlo, ATP); type: cell-based, human; settings: human, uninfected HepG2-CD81 cells; for IC50 at 72 h: two biological replicates listed in one cell; for EC50 at 72 h: uninfected HepG2, ATP bioluminescence
Procedure: (§1) Briefly, HepG2-CD81 cells were seeded into 1,536 well plates containing 50 nL of test and control compounds diluted into DMSO. […] Next, 2 μL of luciferin reagent (Promega BrightGlo) was added to each well and luciferase activity was detected using a Perkin Elmer Envision plate reader. […] In parallel, plates were processed without sporozoites for HepG2 toxicity measurements.
(§2) In continuation of the transmission blocking theme, it is important to establish activities against liver stage parasites. […] This assay uses ultra-high-throughput screening methods optimized for a 1536-well format and a HepG2 human hepatoma cell line. […] To establish selectivity of the compounds for the parasite in the liver stage of infection, cytotoxicity was determined by measuring bioluminescence from the reaction between free ATP of compound-treated, uninfected hepatocytes and a luciferase reporter system.

[7] = system: HepG2 cells; experiment: as above; type: cell-based, human; settings: for IC50 / HepG2 Cytotoxicity Bioluminescence Assay: Maximum measured (%): two biological replicates listed in one cell
Procedure: as §1, §2

[8] = system: P. falciparum W2; parameters: method as in Coertzen et al. (2018); settings: SYBR Green I; ref Coertzen et al. (2018); read-out: Proliferative IC50 W2; cited from earlier work
[9] = system: P. falciparum Dd2; parameters: method as in Coertzen et al. (2018); settings: pLDH, 48 h; ref Coertzen et al. (2018); read-out: Metabolic IC50 Dd2; cited from earlier work
[10] = system: P. falciparum NF54 late stage gametocytes (>90% stage IV and V); parameters: method as in Coertzen et al. (2018); settings: read-out: Late Stage (LG, Luc 72 h) IC50; >90% stage IV and V gametocytes; ref Coertzen et al. (2018); cited from earlier work
[11] = system: P. falciparum K1; parameters: method as in Coertzen et al. (2018); settings: SYBR Green I; ref Coertzen et al. (2018); read-out: Proliferative IC50 K1; cited from earlier work
[12] = system: P. berghei ANKA GFP-Luc-SMcon sporozoites; experiment: P. berghei-luciferase liver stage bioluminescence assay (causal prophylactic mode) in HepG2-CD81 cells; type: cell-based, Plasmodium berghei; settings: for Emax: 48 h, read-out: P.berghei-Luciferase Liver Stage Bioluminescence Assay: Maximum measured (%)
Procedure: as §1, §2

[13] = system: P. falciparum PL08-009 (5C); experiment: T0 [3H]-hypoxanthine drug susceptibility assay, artemisinin-resistant clone (C580Y); type: cell-based, Plasmodium falciparum; settings: preliminary, W2 as comparative sensitive strain
[14] = system: P. falciparum NF54; parameters: method as in Coertzen et al. (2018); settings: pLDH, 48 h; ref Coertzen et al. (2018); read-out: Metabolic IC50 NF54; cited from earlier work
[15] = Cytotoxicity, Cytoselect LDH cytotoxicity assay kit; type: cell-based; settings: human, HepG2 cells
Procedure: (§3) Cytotoxicity (EC50) was determined against Chinese hamster ovarian (CHO) using a 3-(4,5-dimethylthiazol-2-yl)-2,5-diphenyltetrazolium bromide (MTT) assay and hepatocellular carcinoma cells (HepG2) using the Cytoselect LDH cytotoxicity assay kit (Cell Biolabs).

[16] = Cytotoxicity, MTT assay; type: cell-based; settings: Chinese hamster, CHO cells
Procedure: as §3

[17] = system: P. falciparum Dd2; experiment: Metabolic (parasite LDH) assay, asexual ring stage parasites, 48 h; type: cell-based; settings: Plasmodium falciparum, pLDH, Dd2 CQ, pyrimethamine resistant
Procedure: (§4) Working solutions of the derivatives were prepared from a 10 mM stock solution in 100% DMSO in supplemented RPMI 1640 media containing Albumax II with a final DMSO concentration of <0.1%, previously determined as being non-toxic to intraerythrocytic asexual parasites and gametocytes. Dose responses were assayed using a two-fold serial drug dilution on in vitro >95% ring stage intraerythrocytic P. falciparum parasites at 37°C under 90% N2, 5% CO2, and 5% O2 atmospheric conditions, detecting both parasite lactate dehydrogenase (pLDH) activity as a metabolic marker following a 48 h drug exposure (1.5–2% parasitemia and 2% hematocrit; Makler et al., [1993]) and SYBR Green I fluorescence as proliferative marker following a 96 h drug exposure (1% parasitemia and 1% hematocrit). […] Data analysis was performed using GraphPad Prism 7.

[18] = system: P. falciparum NF54 late stage gametocytes (>90% stage IV and V); experiment: Gametocytocidal luciferase reporter assay, late stage, 72 h; type: cell-based, Plasmodium falciparum; settings: Plasmodium falciparum, NF54, 72 h, read-out: Late Stage (LG, Luc 72 h) IC50, >90% stage IV and V gametocytes, ±SEM
Procedure: (§5) P. falciparum parasites (NF54, K1, and W2) were cultured in vitro in human erythrocytes (A^+ or O^+) under 90% N2, 5% CO2, and 5% O2 atmospheric conditions with supplemented RPMI 1640 media (Sigma Aldrich) containing Albumax II, as previously described (Verlinden et al., [2011]). This study was carried out according the guidelines set out by the Faculty of Health Sciences Ethical Committee, Ethical Clearance no. EC-120821/077. The protocol was approved by the Faculty of Health sciences ethical committee at the University of Pretoria. All subjects gave written informed consent in accordance with the Declaration of Helsinki. Parasite proliferation was monitored microscopically using Giemsa stained smears. Synchronized ring stage parasites (>95%) were obtained using a 5% D-sorbitol (Sigma Aldrich) treatment. […] Gametocyte cultures were kept stationary under 90% N2, 5% CO2, and 5% O2 atmospheric conditions at 37°C and treated with 50 mM N-acetyl-glucosamine (NAG) to eliminate residual invasion of asexual parasites.
(§6) Gametocytocidal activity was determined using the luciferase reporter line (Reader et al., [2015]) to derive dose responses with two-fold serial drug dilutions for 48 h against early stage gametocytes (day 5 post-induction population, >90% stage I–III) and 10-fold serial drug dilutions for 72 h against late stage gametocytes (day 10 post-induction population, >90% late stage IV–V) (2% gametocytemia, 2% hematocrit), at 37°C under 90% N2, 5% CO2, and 5% O2 atmospheric conditions.

[19] = system: P. falciparum NF54; experiment: Metabolic (parasite LDH) assay, asexual ring stage parasites, 48 h; type: cell-based; settings: Plasmodium falciparum, pLDH, CQ-sensitive NF54
Procedure: as §5, §4

[20] = system: P. falciparum NF54 early stage gametocytes (>90% stage I–III); experiment: Gametocytocidal luciferase reporter assay, early stage, 48 h; type: cell-based; settings: Plasmodium falciparum, NF54, 48 h, read-out: Early Stage (EG, Luc 48 h) IC50
Procedure: as §5, §6

[21] = system: P. falciparum K1; experiment: Proliferative (SYBR Green I) assay, asexual parasites, 96 h; type: cell-based; settings: Plasmodium falciparum, ±SEM
Procedure: as §5, §4

[22] = system: P. falciparum NF54; experiment: as above; type: cell-based; settings: Plasmodium falciparum, ±SEM
Procedure: as §5, §4

[23] = system: P. falciparum W2; experiment: as above; type: cell-based; settings: Plasmodium falciparum, ±SEM
Procedure: as §5, §4

[24] = system: P. falciparum W2; parameters: method as in Lanteri et al., 2014; settings: ref Lanteri et al., 2014; read-out: mean IC50 against W2; cited from earlier work
[25] = system: Pf CamWT, Cam3.II, CamWTC580Y, Cam3.IIC580Y, Cam3.IIRev; parameters: method as in Lanteri et al., 2014; settings: ref Lanteri et al., 2014; read-out: mean IC50 across CamWT, Cam3.II and K13 transfected strains; cited from earlier work
[26] = Plasmodium berghei, two biological replicates listed in one cell
[27] = Plasmodium berghei, HepG2, 48 h, liver stage, HepG2 host cells, luciferase after 48 h, ±SD, read-out: P. berghei sporozoites IC50
[28] = Plasmodium berghei, two biological replicates listed in one cell, read-out: P.berghei-Luciferase Liver Stage Bioluminescence Assay: IC50

Row | Structure (SMILES) | IC50 [1] [nM] | IC50 [2] [nM] | IC90 [2] [nM] | EC50 [3] [nM] | IC50 [4] [nM] | susceptibility of ARC08-22 (4G) clone (in words) [5] | IC50 at 72 h [6] [nM] | EC50 at 72 h [6] [nM] | IC50 [8] [nM] | IC50 [9] [nM] | IC50 [10] [nM] | IC50 [11] [nM] | Emax [12, 26] [%] | IC50 [12, 27] [nM] | IC50 [12, 28] [nM] | IC50 [14] [nM] | other results
1 | C[C@H]1[C@H](N2CCSCC2)O[C@@H]2O[C@@]3(C)CC[C@H]4[C@H](C)CC[C@@H]1[C@@]24OO3 [Artemiside 7, artemiside] | 16.4 ± 1 | 2.21 ± 0.42 | 4.28 ± 0.25 | > 271000 | 1.11 ± 0.17 | no indication of reduced susceptibility | > 25000 | > 25000 | 1.75 ± 0.27 | 8.2 ± 1.4 | 1.5 ± 0.5 | 1.6 ± 0.4 | 98.1 | 81.3 ± 9.62 | 74.5 | 6 ± 1.8 | HepG2 cytotoxicity IC50 (in words) ([7]; at 25 μM (artemiside 7) and 50 μM (artemisone 8)): no measurable IC50 values; IC50 [7]: > 25000 nM; HepG2 Cytotoxicity Bioluminescence Assay: Maximum measured (%) ([7]; listed as 7 Artemiside (GC008)): 30.4% and 36.5%; inhibition at 5 µM ([12]; Plasmodium berghei, Conc. 5 μM, read-out: P. berghei sporozoites Maximum inhibition %): 99 ± 1.34%; IC50 ([12]; two biological replicates listed in one cell, listed as 7 Artemiside (GC008), read-out: P.berghei-Luciferase Liver Stage Bioluminescence Assay: IC50): 88.1 nM; susceptibility of PL08-009 (5C) clone (in words) [13]: no indication of reduced susceptibility
2 | CC1CCC2C(C)C(Nc3ccc(F)cc3)OC3OC4(C)CCC1C32OO4 (centres unmarked) [Arylamine 12] | 38.2 ± 9 | 4.76 ± 0.38 | 8.51 ± 0.34 | 2900 ± 1400 | 1.3 ± 0.6 | – | – | – | 3 ± 1 | 11.1 ± 1 | 16.4 ± 6.38 | 0.64 ± 0.1 | – | – | – | 7.8 ± 1.9 | –
3 | C[C@H]1[C@H](N2CCN(C(=O)c3ccc(C(F)(F)F)cc3)CC2)O[C@@H]2O[C@@]3(C)CC[C@H]4[C@H](C)CC[C@@H]1[C@@]24OO3 [Compound 27] | – | 0.21 ± 0.04 | 0.41 ± 0.08 | – | – | no indication of reduced susceptibility | 8910 | 7020 | – | – | – | – | 105 | 168 ± 55.2 | 129 | – | EC50 [15]: 136 nM; EC50 [16]: 150000 nM; IC50 [17]: 13.2 ± 9.3 nM; IC50 [18]: 2.8 ± 1.8 nM; IC50 [19]: 0.49 ± 0.04 nM; IC50 [20]: 43.7 ± 5.1 nM; IC50 [21]: 3.5 ± 2.4 nM; IC50 [22]: 3.4 ± 0.4 nM; IC50 [23]: 3 ± 0.4 nM; HepG2 Cytotoxicity Bioluminescence Assay: Maximum measured (%) ([7]; listed as 27 (WHN-15)): 78.3% and 80.2%; IC50 ([7]; listed as 27 (WHN-15)): 5120 nM; inhibition at 10 µM ([12]; Plasmodium berghei, Conc. 10 μM, read-out: P. berghei sporozoites Maximum inhibition %): 108 ± 4.24%; IC50 ([12]; two biological replicates listed in one cell, listed as 27 (WHN-15), read-out: P.berghei-Luciferase Liver Stage Bioluminescence Assay: IC50): 207 nM
4 | C[C@H]1[C@@H](O)O[C@@H]2O[C@@]3(C)CC[C@H]4[C@H](C)CC[C@@H]1[C@@]24OO3 [DHA 2, dihydroartemisinin] | 43 ± 3.9 | 4.58 ± 2.54 | 10.3 ± 5.76 | 25200 | 2.51 ± 0.19 | – | – | – | 1.74 ± 0.22 | 5.7 ± 2 | 33.7 ± 1.98 | 1.51 ± 0.33 | – | – | – | 0.8 ± 0.1 | IC50 [24]: 5.2 nM; IC50 [25]: 11.2 nM
